This note sets out measurements from the Deep4Chem optical property database.

The nature of the first data set: solvent given as SMILES. As to conditions: in CO.
`CC1(C)C(/C=C/C=C/C=C/C=C2/N(CCCCCC(=O)O)c3ccc(S(=O)(=O)[O-])cc3C2(C)C)=[N+](CCCCCC(=O)O)c2ccc(S(=O)(=O)[O-])cc21` registered an emission maximum of 773 nm.

Molecule `Cc1ccc(C2=C3C=C(I)C(I)=[N+]3[B-](F)(F)n3c2cc(I)c3I)cc1` gave an emission maximum of 593.5 nm.

`c1ccc(N(c2ccccc2)c2ccc(-c3ncc(-c4ccc(-c5ccc(-c6cnc(-c7ccc(N(c8ccccc8)c8ccccc8)cc7)s6)s5)s4)s3)cc2)cc1` showed an emission maximum of 509 nm.

Turning to `COc1ccc2n1[B-](F)(F)[N+]1=CC=CC1=C2c1ccccc1`, the emission maximum stood at 512 nm.

On to `COc1c2ccccc2c(OC)c2c1c1c(F)cccc1n2C`, for which the emission maximum was 417 nm.

Molecule `CC(C)c1ccc2ccc3cccc4ccc1c2c34` returned an emission maximum of 376 nm.

The same data set, now with this note: in CS(C)=O.
`c1ccc2c(-c3nc4sc5ccccc5c4s3)cccc2c1` had an emission maximum of 447 nm.

Consider `CC(=O)c1ccc(-c2nc3ccc(N(C)C)cc3s2)cc1`, for which the emission maximum is given as 587.85 nm.

`CCOC(=O)C1=C(C)NC2=C(C(=O)c3ccccc32)C1c1ccc(N(C)C)cc1` (configuration not stated) showed an emission maximum of 548 nm.

The same data set, now with this note: in Cc1ccccc1.
`CCN(CC)c1ccc(/C=C/C(=O)c2c(O)cc(C)oc2=O)cc1` returned an emission maximum of 534 nm.

Regarding `COc1ccc(N(c2ccc(/C=C(\C)c3ccccc3)cc2)c2ccc(/C=C(\C)c3ccccc3)cc2)cc1`, the emission maximum stood at 435 nm.

As to `CCCCC(CC)Cn1c2ccc(C(=C(C#N)C#N)c3ccccc3)cc2c2c(-c3ccc(Br)cc3)c3c(c(-c4ccc(Br)cc4)c21)c1cc(C(=C(C#N)C#N)c2ccccc2)ccc1n3CC(CC)CCCC` (configuration not stated), the emission maximum came out at 540 nm.

`N#CC(C#N)=C(c1ccc(-n2ccc3ccccc32)cc1)c1ccc(-n2ccc3ccccc32)cc1` yielded an emission maximum of 536 nm.

`O=P1(c2ccccc2)c2cc(N3c4ccccc4Sc4ccccc43)ccc2-c2ccc(N3c4ccccc4Sc4ccccc43)cc21` returned an emission maximum of 557 nm.

In turn, `CCCCCCCCOC(=O)c1cc2ccc3ccccc3c2c(C#N)c1N` yielded an emission maximum of 467 nm.

The same data set, now with this note: in ClC(Cl)(Cl)Cl.
With `CCOC(=O)C1=C(C)NC2=C(C(=O)c3ccccc32)C1c1ccc(N(C)C)cc1` (configuration not stated), the emission maximum is on record as 475 nm.

For the molecule `N#Cc1c(-c2ccccc2)cc(-c2ccccc2)[nH]c1=S`, the emission maximum was determined as 510 nm.

The same data set, now with this note: in ClC(Cl)Cl.
As to `N#Cc1nc(N(Cc2ccc(F)cc2)Cc2ccc(F)cc2)c(C#N)nc1N(Cc1ccc(F)cc1)Cc1ccc(F)cc1`, the emission maximum came to 577 nm.

`O=Cc1ccc(C#CC(C#Cc2ccc(C=O)o2)=Cc2ccc(C=C(C#Cc3ccc(C=O)o3)C#Cc3ccc(C=O)o3)s2)o1` yielded an emission maximum of 577 nm.

`CC(C)(C)c1cc(C(C)(C)C)c2oc3c(c2c1)C=CN1C(=O)C2=C4c5oc6c(C(C)(C)C)cc(C(C)(C)C)cc6c5C=CN4C(=O)C2=C31` displayed an emission maximum of 651 nm.

`CC(=O)c1ccc(-c2nc3ccc(N(C)C)cc3s2)cc1` gave an emission maximum of 524 nm.

`c1ccc(-c2c3c(nc4ccccc24)-c2cc4c(cc2CC3)-c2nc3ccccc3c(-c3ccccc3)c2CC4)cc1` had an emission maximum of 387 nm.

Turning to `CCOC(=O)C1=C(C)NC2=C(C(=O)c3ccccc32)C1c1ccc(N(C)C)cc1` (configuration not stated), the emission maximum is recorded as 532 nm.

`CCCCCCN1C(=O)c2cccc3cc(/N=C\c4ccc(N(c5ccccc5)c5ccccc5)cc4)cc(c23)C1=O` gave an emission maximum of 565 nm.

The same data set, now with this note: in ClCCl.
As for `CCN(CC)c1ccc(/C=C/C(=O)c2c(O)cc(C)oc2=O)cc1`, the emission maximum is listed as 575 nm.

With `Cc1cn2cc(-c3ccc(C#N)cc3)[n-][n+]2c1`, the emission maximum worked out at 518 nm.

`CCOC(=O)c1c(-c2cc3cc4c(cc3oc2=O)OC(C)(C)CC4)nn(-c2ccccc2)c1C(=O)OCC` came in with an emission maximum of 430 nm.

Consider `CCCCCCCCOc1cc(/C=C/c2cc(OCCCCCCCC)c(/C=C/c3cc(OCCCCCCCC)c(Br)cc3OCCCCCCCC)cc2OCCCCCCCC)c(OCCCCCCCC)cc1Br`, for which the emission maximum was 467 nm.

For `CCCCC(CC)Cn1c2ccc(C(=C(C#N)C#N)c3ccccc3)cc2c2c(-c3ccc(Br)cc3)c3c(c(-c4ccc(Br)cc4)c21)c1cc(C(=C(C#N)C#N)c2ccccc2)ccc1n3CC(CC)CCCC` (configuration not stated), the emission maximum is 597 nm.

In turn, `COc1ccc2cc(/C=C/C3=CC(c4ccccc4)=[O+][B-](F)(F)O3)ccc2c1` gave an emission maximum of 566 nm.

`CCOC(=O)C1=C(C)NC2=C(C(=O)c3ccccc32)C1c1ccc(N(C)C)cc1` (configuration not stated) registered an emission maximum of 530 nm.

Molecule `CC(C)(C)NC(=O)c1cc2ccccc2c2ccc3c4ccccc4c4ccccc4c3c12` registered an emission maximum of 419 nm.

For the molecule `C(#Cc1c(C#Cc2cccs2)c(C#Cc2cccs2)c(C#Cc2cccs2)c(C#Cc2cccs2)c1C#Cc1cccs1)c1cccs1`, the emission maximum came out at 453 nm.

The molecule `Cc1ccccc1-c1c2ccc(=[N+]3CCOCC3)cc-2oc2cc(N3CCCCC3)ccc12` displayed an emission maximum of 579 nm.

Turning to `COC(=O)CCC1=CC(C#Cc2ccc(OC)cc2)=[N+]2C1=Cc1c(CCC(=O)OC)cc(C#Cc3ccc(OC)cc3)n1[B-]2(F)F`, the emission maximum is 682 nm.

With `O=c1c2cc(F)ccc2nc2n1[B-](F)(F)[n+]1ccccc1-2`, the emission maximum amounted to 438 nm.

On to `c1ccc(N(c2ccccc2)c2ccc(-c3nc4c5ccccc5c5ccccc5c4n3-c3ccccc3)cc2)cc1`, for which the emission maximum turned out to be 468 nm.

As for `Cc1ccc(-c2c3nc(c(-c4ccc(C)cc4)c4ccc([nH]4)c(-c4ccc(OC(=O)C(C)c5ccccc5)cc4)c4nc(c(-c5ccc(C)cc5)c5ccc2[nH]5)C=C4)C=C3)cc1` (configuration not stated), the emission maximum is reported as 653 nm.

In turn, `COc1ccc2n1[B-](F)(F)[N+]1=CC=CC1=C2c1ccccc1` showed an emission maximum of 518 nm.

`CC(C)(C)c1cc2ccc3c(N(c4ccc(F)cc4)c4ccc(F)cc4)cc(N(c4ccc(F)cc4)c4ccc(F)cc4)c4ccc(c1)c2c34` displayed an emission maximum of 465 nm.

For `COC(=O)C1=C(C(=O)OC)C2(c3cc([N+](=O)[O-])ccc3-c3ccc([N+](=O)[O-])cc32)C2(/C=C/c3ccccc3)c3cc(OC)c(OC)cc3CCN12` (configuration not stated), the emission maximum is 495 nm.

`CC(=O)c1ccc(C#Cc2ccc(-c3cc(N(C)C)c4ccccc4c3)cc2)cc1` yielded an emission maximum of 458 nm.

In turn, `C(=C\c1ncc(-c2ccc(OCc3ccccc3)c(OCc3ccccc3)c2)o1)/c1cccc(N2CCN(c3ccccc3)CC2)c1` yielded an emission maximum of 500 nm.

On to `COc1c2ccccc2c(OC)c2c1c1c(F)cccc1n2C`, for which the emission maximum worked out at 418 nm.

Turning to `CC(C)c1ccc2ccc3cccc4ccc1c2c34`, the emission maximum is reported as 377 nm.

With `CC1=C2C=CC(c3ccccc3)=[N+]2[B-](F)(F)n2c1ccc2-c1ccccc1`, the emission maximum was 577 nm.

The data set is the same for the next values; noted with them: in O.
Regarding `CC1(C)C(/C=C/C=C/C=C/C=C2/N(CCCCCC(=O)O)c3ccc(S(=O)(=O)[O-])cc3C2(C)C)=[N+](CCCCCC(=O)O)c2ccc(S(=O)(=O)[O-])cc21`, the emission maximum came to 771 nm.

Staying with this data set, now noted: in OCC(F)(F)F.
The molecule `Cc1ccc(C2=C3C=C(I)C(I)=[N+]3[B-](F)(F)n3c2cc(I)c3I)cc1` returned an emission maximum of 588 nm.

The data set is the same for the next values; noted with them: in c1ccc2c(c1)c1ccccc1n2-c1ccc(-c2ccc(-n3c4ccccc4c4ccccc43)cc2)cc1.
For the molecule `N#Cc1cc(N2c3ccccc3Oc3ccccc32)c(N2c3ccccc3Oc3ccccc32)cc1C#N`, the emission maximum turned out to be 612 nm.

As for `O=P1(c2ccccc2)c2cc(N3c4ccccc4Sc4ccccc43)ccc2-c2ccc(N3c4ccccc4Sc4ccccc43)cc21`, the emission maximum was 554 nm.

Staying with this data set, now noted: in c1ccccc1.
`CC(=O)c1ccc(-c2nc3ccc(N(C)C)cc3s2)cc1`: the emission maximum is reported as 487.85 nm.

Consider `CCCCC(CC)Cn1c2ccc(C(=C(C#N)C#N)c3ccccc3)cc2c2c(-c3ccc(Br)cc3)c3c(c(-c4ccc(Br)cc4)c21)c1cc(C(=C(C#N)C#N)c2ccccc2)ccc1n3CC(CC)CCCC` (configuration not stated), for which the emission maximum came out at 543 nm.
